Assay results from PubChem BioAssay (NCI).
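How tested: cells in 96-well plates exposed to compound for 48 hours at five concentrations. TGI denotes the concentration required for complete inhibition of growth.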 *1 amine or outer side, *2 acyl side, *3 side chain or, on linkers, in order; H or OH if unused. Where a SMILES comes first, the peptide text is derived from it. Bridges are numbered along the chain shown (N, C = ends). Roman numbers before positions name the chains, in order. [ ]: non-standard residue; d: D form. Actinocin(9to1) = Cc1c2oc3c(C)ccc(C(=O)[*:1])c3nc-2c(C(=O)[*:2])c(N)c1=O; Hyp = O=C(O)[CH]1C[CH](O)CN1; NMeV = CN[CH](C(=O)O)C(C)C; Sar = CNCC(=O)O

What was measured:
Assay in all cases: NCI anticancer screen, dose series, 48 h
ACHN renal = test system: ACHN renal
HT29 colon = test system: HT29 colon
SN12C renal = test system: SN12C renal
EKVX NSCLC = test system: EKVX NSCLC
SK-MEL-28 melanoma = test system: SK-MEL-28 melanoma
UACC-257 melanoma = test system: UACC-257 melanoma
K-562 leukemia = test system: K-562 leukemia
786-0 renal = test system: 786-0 renal
NCI-H460 lung = test system: NCI-H460 lung
MOLT-4 leukemia = test system: MOLT-4 leukemia
HCC-2998 colon = test system: HCC-2998 colon
UO-31 renal = test system: UO-31 renal
OVCAR-3 ovarian = test system: OVCAR-3 ovarian
M14 melanoma = test system: M14 melanoma

Compound `O=C(O)c1c2c(cc3c1CC1(Cc4cc5c(cc4C1=O)CCC5)C3)CCC2` (stereo not drawn) has a TGI (ACHN renal) of over 100 µM, a TGI (HT29 colon) of over 100 µM and a TGI (SN12C renal) of over 100 µM. It also gave a TGI (EKVX NSCLC) of over 100 µM, a TGI (SK-MEL-28 melanoma) of 82.5 µM and a TGI (UACC-257 melanoma) of over 100 µM. It also gave a TGI (K-562 leukemia) of over 100 µM, a TGI (786-0 renal) of over 100 µM and a TGI (NCI-H460 lung) of over 100 µM. The TGI (MOLT-4 leukemia) was over 100 µM, the TGI (HCC-2998 colon) was over 100 µM and the TGI (UO-31 renal) was over 100 µM. It also gave a TGI (OVCAR-3 ovarian) of over 100 µM and a TGI (M14 melanoma) of over 100 µM.
In the case of `COC(=O)[C@]1(c2cc3ccccc3[nH]2)CC2CN(C(=O)OCc3ccccc3)C1CC2=O` (stereo partly drawn), the TGI (ACHN renal) is reported as 86 µM, the TGI (HT29 colon) is reported as 31.7 µM and the TGI (SN12C renal) is reported as 80.6 µM. The TGI (EKVX NSCLC) was 43.7 µM, the TGI (SK-MEL-28 melanoma) was over 100 µM and the TGI (UACC-257 melanoma) was over 100 µM. It also gave a TGI (K-562 leukemia) of 45.1 µM, a TGI (786-0 renal) of over 100 µM and a TGI (NCI-H460 lung) of 77.6 µM. It also gave a TGI (MOLT-4 leukemia) of 32.6 µM, a TGI (HCC-2998 colon) of over 100 µM and a TGI (UO-31 renal) of over 100 µM. It also gave a TGI (OVCAR-3 ovarian) of over 100 µM and a TGI (M14 melanoma) of 75.1 µM.
For `c1ccc(SC23C4C5C6C4C2C6C53)nc1` (stereo not drawn), the TGI (ACHN renal) was over 100 µM, the TGI (HT29 colon) was over 100 µM and the TGI (SN12C renal) was over 100 µM. It also gave a TGI (EKVX NSCLC) of over 100 µM, a TGI (SK-MEL-28 melanoma) of over 100 µM and a TGI (UACC-257 melanoma) of over 100 µM. For the same compound, the TGI (K-562 leukemia) was over 100 µM, the TGI (786-0 renal) was over 100 µM and the TGI (NCI-H460 lung) was over 100 µM. The TGI (MOLT-4 leukemia) was over 100 µM, the TGI (HCC-2998 colon) was over 100 µM and the TGI (UO-31 renal) was over 100 µM. The TGI (OVCAR-3 ovarian) was over 100 µM and the TGI (M14 melanoma) was over 100 µM.
Work on `CN(C)CCOc1ccc(-c2c(Oc3ccccc3)c(=O)oc3ccccc23)cc1` yielded a TGI (ACHN renal) of 24.4 µM, a TGI (HT29 colon) of 25.4 µM and a TGI (SN12C renal) of 26.9 µM. The TGI (EKVX NSCLC) was 27.5 µM, the TGI (SK-MEL-28 melanoma) was 25.5 µM and the TGI (UACC-257 melanoma) was 19.5 µM. It also gave a TGI (K-562 leukemia) of 23 µM, a TGI (786-0 renal) of 20.5 µM and a TGI (NCI-H460 lung) of 29 µM. The TGI (MOLT-4 leukemia) was 20.5 µM, the TGI (HCC-2998 colon) was 20.8 µM and the TGI (UO-31 renal) was 19.9 µM. It also gave a TGI (OVCAR-3 ovarian) of 26 µM and a TGI (M14 melanoma) of 4.63 µM.
In the case of `c1ccc(Nc2nn3c(CCCCCCCCc4nnc5sc(Nc6ccccc6)nn45)nnc3s2)cc1`, the TGI (ACHN renal) is reported as over 100 µM, the TGI (HT29 colon) is reported as 77.5 µM and the TGI (SN12C renal) is reported as over 100 µM. It also gave a TGI (EKVX NSCLC) of over 100 µM, a TGI (SK-MEL-28 melanoma) of over 100 µM and a TGI (UACC-257 melanoma) of over 100 µM. The TGI (K-562 leukemia) was 37.6 µM, the TGI (786-0 renal) was 79.5 µM and the TGI (NCI-H460 lung) was over 100 µM. For the same compound, the TGI (MOLT-4 leukemia) was 41.7 µM, the TGI (HCC-2998 colon) was over 100 µM and the TGI (UO-31 renal) was 69.9 µM. It also gave a TGI (OVCAR-3 ovarian) of over 100 µM and a TGI (M14 melanoma) of 35.2 µM.
`CC1SC2(CCCCC2)N(NC(=O)CSc2nc3ccc(Cl)cc3c(=O)n2-c2ccccc2)C1=O` (stereo not drawn) showed a TGI (ACHN renal) of 83.9 µM, a TGI (HT29 colon) of 33 µM and a TGI (SN12C renal) of 32.5 µM. The TGI (EKVX NSCLC) was over 100 µM, the TGI (SK-MEL-28 melanoma) was 88.4 µM and the TGI (UACC-257 melanoma) was 55.5 µM. It also gave a TGI (K-562 leukemia) of 73.8 µM, a TGI (786-0 renal) of 34.9 µM and a TGI (NCI-H460 lung) of 42.7 µM. The TGI (MOLT-4 leukemia) was 47.2 µM, the TGI (HCC-2998 colon) was 41.8 µM and the TGI (UO-31 renal) was 40.4 µM. For the same compound, the TGI (OVCAR-3 ovarian) was 32.8 µM and the TGI (M14 melanoma) was 42.2 µM.
`COC(=O)c1ccccc1/C=C1\Cc2ccc3c(c2C1=O)CCCC3` was tested, and the TGI (ACHN renal) was over 100 µM, the TGI (HT29 colon) was over 100 µM and the TGI (SN12C renal) was over 100 µM. It also gave a TGI (EKVX NSCLC) of over 100 µM, a TGI (SK-MEL-28 melanoma) of over 100 µM and a TGI (UACC-257 melanoma) of over 100 µM. It also gave a TGI (K-562 leukemia) of over 100 µM, a TGI (786-0 renal) of over 100 µM and a TGI (NCI-H460 lung) of over 100 µM. For the same compound, the TGI (MOLT-4 leukemia) was over 100 µM, the TGI (HCC-2998 colon) was over 100 µM and the TGI (UO-31 renal) was over 100 µM. The TGI (OVCAR-3 ovarian) was over 100 µM and the TGI (M14 melanoma) was over 100 µM.
In the case of `CCn1c2c(c3ccccc31)[C@@H](c1ccc(Cl)cc1)CC1C(=O)N(c3ccccc3)C(=O)C21` (stereo partly drawn), the TGI (ACHN renal) is reported as over 100 µM, the TGI (HT29 colon) is reported as over 100 µM and the TGI (SN12C renal) is reported as over 100 µM. The TGI (EKVX NSCLC) was over 100 µM, the TGI (SK-MEL-28 melanoma) was over 100 µM and the TGI (UACC-257 melanoma) was over 100 µM. It also gave a TGI (K-562 leukemia) of over 100 µM, a TGI (786-0 renal) of over 100 µM and a TGI (NCI-H460 lung) of over 100 µM. It also gave a TGI (MOLT-4 leukemia) of over 100 µM, a TGI (HCC-2998 colon) of over 100 µM and a TGI (UO-31 renal) of over 100 µM. It also gave a TGI (OVCAR-3 ovarian) of over 100 µM and a TGI (M14 melanoma) of over 100 µM.
In the case of `COC(=O)C(Cc1c[nH]c2ccccc12)NP(=O)(O)OCC1OC(n2cc(Br)c(=O)[nH]c2=O)CC1O` (stereo not drawn), the TGI (ACHN renal) is reported as over 100 µM, the TGI (HT29 colon) is reported as over 100 µM and the TGI (SN12C renal) is reported as over 100 µM. The TGI (EKVX NSCLC) was over 100 µM, the TGI (SK-MEL-28 melanoma) was over 100 µM and the TGI (UACC-257 melanoma) was over 100 µM. It also gave a TGI (K-562 leukemia) of over 100 µM, a TGI (786-0 renal) of over 100 µM and a TGI (NCI-H460 lung) of over 100 µM. The TGI (MOLT-4 leukemia) was over 100 µM, the TGI (HCC-2998 colon) was over 100 µM and the TGI (UO-31 renal) was over 100 µM. The TGI (OVCAR-3 ovarian) was over 100 µM and the TGI (M14 melanoma) was over 100 µM.
`Cc1c2oc3c(C)ccc(C(=O)NC4C(=O)NC(C(C)C)C(=O)N5CC(O)CC5C(=O)N(C)CC(=O)N(C)C(C(C)C)C(=O)OC4C)c3nc-2c(C(=O)NC2C(=O)NC(C(C)C)C(=O)N3CC(O)CC3C(=O)N(C)CC(=O)N(C)C(C(C)C)C(=O)OC2C)c(N)c1=O` (stereo not drawn) (I: TV[Hyp][Sar][NMeV] / II: TV[Hyp][Sar][NMeV]; ester I:1-I:C, II:1-II:C; linker I:N-II:N via Actinocin(9to1); configuration not given here) gave a TGI (ACHN renal) of over 1 µM, a TGI (HT29 colon) of over 1 µM and a TGI (SN12C renal) of over 1 µM. The TGI (EKVX NSCLC) was over 1 µM, the TGI (SK-MEL-28 melanoma) was over 1 µM and the TGI (UACC-257 melanoma) was over 1 µM. The TGI (K-562 leukemia) was over 1 µM, the TGI (786-0 renal) was over 1 µM and the TGI (NCI-H460 lung) was over 1 µM. For the same compound, the TGI (MOLT-4 leukemia) was over 1 µM, the TGI (HCC-2998 colon) was over 1 µM and the TGI (UO-31 renal) was over 1 µM. The TGI (OVCAR-3 ovarian) was over 1 µM and the TGI (M14 melanoma) was over 1 µM.
In the case of `Nc1ccc2ccc(N3CCNCC3)nc2n1`, the TGI (ACHN renal) is reported as over 100 µM, the TGI (HT29 colon) is reported as over 100 µM and the TGI (SN12C renal) is reported as over 100 µM. For the same compound, the TGI (EKVX NSCLC) was over 100 µM, the TGI (SK-MEL-28 melanoma) was over 100 µM and the TGI (UACC-257 melanoma) was over 100 µM. The TGI (K-562 leukemia) was over 100 µM, the TGI (786-0 renal) was over 100 µM and the TGI (NCI-H460 lung) was over 100 µM. For the same compound, the TGI (MOLT-4 leukemia) was over 100 µM, the TGI (HCC-2998 colon) was over 100 µM and the TGI (UO-31 renal) was over 100 µM. It also gave a TGI (OVCAR-3 ovarian) of over 100 µM and a TGI (M14 melanoma) of over 100 µM.
Compound `O=c1c2cnccc2cc2c3ccccc3ccn12` has a TGI (ACHN renal) of over 100 µM, a TGI (HT29 colon) of over 100 µM and a TGI (SN12C renal) of over 100 µM. It also gave a TGI (EKVX NSCLC) of over 100 µM, a TGI (SK-MEL-28 melanoma) of over 100 µM and a TGI (UACC-257 melanoma) of over 100 µM. For the same compound, the TGI (K-562 leukemia) was over 100 µM, the TGI (786-0 renal) was over 100 µM and the TGI (NCI-H460 lung) was over 100 µM. It also gave a TGI (MOLT-4 leukemia) of 91.8 µM, a TGI (HCC-2998 colon) of over 100 µM and a TGI (UO-31 renal) of over 100 µM. For the same compound, the TGI (OVCAR-3 ovarian) was over 100 µM and the TGI (M14 melanoma) was over 100 µM.
